According to US20170332666A1, “APPLICATION OF P-METHYL BENZOIC ACID OR SALTS THEREOF AS ADDITIVES FOR ANIMAL FEED” (priority 2015, published 2017):
“And” between values parts separate entries of the source, which are not always exact repeats. Equal entries are not always repeated.

Columns and labels:
weaned pigs = experiment: Growth promotion test of weaned pigs with additives in creep feed; type: in vivo, pig (Duroc×Landrace×Large White piglets); settings: for Average daily weight gain / Diarrhea rate / Feed conversion ratio: 10 days
Source text: 140 weaned Duroc×Landrace×Large White piglets aged 28 days with similar body weight and further having an average body weight of 7.61 kg were divided into 14 groups, each with 10 pigs. After adding different concentrations of p-methyl benzoic acid or its calcium, sodium, potassium or zinc salt prepared by the embodiments disclosed herein into the conventional creep feed (excluding acidifying agent) of each group, the pigs were free feeding and drinking during the test period of 10 days, then to collect statistics of the weight gain and the feed conversion ratio as well as the diarrhea rate of test pig in each test group.

meat-type ducks = experiment: Feeding test of meat-type ducks with additives in basic diet; type: in vivo, Cherry Valley ducks; settings: for Survival rate / Average daily weight gain / Average feed conversion ratio: 2000 ppm in basic diet, 30 days
Source text: 300 Cherry Valley ducks aged 1 day were divided into 6 groups with 50 ducks per group. After adding different concentrations of p-methyl benzoic acid or benzoic acid into the same basic diet (without antibiotics) of each group, the Cherry Valley ducks were free feeding and drinking, and continued feeding for 30 days, then to collect statistics of the production performance and the survival rate of test ducks, the test grouping and metered concentrations are shown in Table 3, and the results of the production performance are shown in Table 4.

broilers = experiment: Growth promotion test of broilers with acidifying agents in complete formula feed; type: in vivo, broilers (chicken); settings: for Average daily weight gain / Feed conversion ratio: 2000 ppm in complete formula feed, 21 days; for Effect on daily gain (in words) / Effect on feed conversion ratio (in words): 2000 ppm
Experimental: 300 broilers (female seedlings) aged 1 day were divided into 6 groups in accordance with Table 6, and each group with 50 broilers. Acidifying agent with different type or concentration was added to the complete formula feed for chickens without any acidifying agents in each group, the broilers were free feeding and drinking during the test period of 21 days and then to collect statistics of the weight gain and the feed conversion ratio of test broiler in each test group.

grass carps = experiment: Growth promotion test in grass carps with additives in feed; type: in vivo, grass carp; settings: for Feed conversion ratio (FCR) / Final weight / Survival rate SR / Weight gain rate: 3000 ppm in feed, 8 weeks
Experimental: The test was performed on an aquaculture farm of Guangzhou Insighter Biotechnology CO., LTD, and the test fish is grass carp. Healthy and lively grass carps with the same species and sizes were fed in a large cage for 4 weeks, thereafter used for formal test, and the test system is a small floating cage. The small floating cage and temporary cages were placed in a 3500 square meter pond of the test field. Water depth of the pond was close to 1.5m, and the pond water is fully aerated. When testing, 160 grass carps starved for 1 day were randomly divided into 4 groups, each group with 4 replicates, and each replicate with 10 fish. After the whole weighing, the samples were randomly placed in 16 cages and fed with different test diets. The test diets were self-formulated in accordance with Table 5, and the basic diets of different test groups were adding different growth promoters respectively. The test adopted artificial feeding with food restriction, and the feed intake was adjusted once a week, the feeding levels of two groups were completely consistent (metered by the initial weight), the fish in each group is fed two times in one day (7:30 and 15:00). The test lasted for 8 weeks.

Row | SMILES | Effect on diarrhea rate of test pigs (in words) (weaned pigs; 2000 ppm) | Improvement of production performance (in words) (weaned pigs; 2000 ppm) | Effect on diarrhea rate of test pigs (in words) (weaned pigs; 10000 ppm to 20000 ppm) | Improvement of production performance (in words) (weaned pigs; 10000 ppm to 20000 ppm) | Survival rate (meat-type ducks) [%] | Average daily weight gain (broilers) [g] | Feed conversion ratio (broilers) | Average daily weight gain (weaned pigs; 2000 ppm in creep feed) | Diarrhea rate (weaned pigs; 2000 ppm in creep feed) | Feed conversion ratio (weaned pigs; 2000 ppm in creep feed) | Feed conversion ratio (FCR) (grass carps) | Final weight (grass carps) [g] | Survival rate SR (grass carps) [%] | Weight gain rate (grass carps) [%] | Effect on daily gain (in words) (broilers) | Effect on feed conversion ratio (in words) (broilers) | further results
1 | Cc1ccc(C(=O)O)cc1 [p-methyl benzoic acid] | significantly reduce the diarrhea rate | significant dose effect | significantly reduce the diarrhea rate | significant dose effect | 100 | 24.5 | 1.76 |  |  |  |  |  |  |  |  |  | Average daily weight gain (weaned pigs; 10000 ppm in creep feed): 215.8 g; Diarrhea rate (weaned pigs; 10000 ppm in creep feed): 11.0%; Feed conversion ratio (weaned pigs; 10000 ppm in creep feed): 1.51; Average daily weight gain (weaned pigs; 20000 ppm in creep feed): 221.4 g; Diarrhea rate (weaned pigs; 20000 ppm in creep feed): 9.0%; Feed conversion ratio (weaned pigs; 20000 ppm in creep feed): 1.47; Production performance and survival rate (in words) (meat-type ducks): greatly improved
2 | Cc1ccc(C(=O)[O-])cc1.Cc1ccc(C(=O)[O-])cc1.[Zn+2] [zinc p-methyl benzoate] |  |  |  |  |  |  |  | 201.3 g | 15.0% | 1.60 |  |  |  |  |  |  | 
3 | O=CO [formic acid, reference compound] |  |  |  |  | 93 |  |  | 173.4 g | 25.0% | 1.65 |  |  |  |  |  |  | Average daily weight gain (meat-type ducks): 58.6; Average feed conversion ratio (meat-type ducks): 2.11
4 | O=C(O)c1ccccc1 [benzoic acid] |  |  |  |  | 92 |  |  | 192.3 g and 193.5 g | 22.0% and 23.0% | 1.66 and 1.65 | 1.46 | 585 | 100 | 147 |  |  | Rate of anti-diarrhea as compared to phosphoric acid or citric acid (in words) (weaned pigs; equal concentration (2000 ppm)): increased slightly; Average daily weight gain (meat-type ducks): 59.7; Average feed conversion ratio (meat-type ducks): 2.10
5 | Cc1ccc(C(=O)[O-])cc1.[K+] [potassium p-methyl benzoate] |  |  | significantly reduce the diarrhea rate | significant dose effect |  |  |  | 205.8 g | 15.0% | 1.58 |  |  |  |  |  |  | 
6 | C/C=C/C=C/C(=O)O [sorbic acid] |  |  |  |  |  | 19.9 | 1.89 |  |  |  |  |  |  |  | no such effects | no such effects | 
7 | Cc1ccc(C(=O)[O-])cc1.Cc1ccc(C(=O)[O-])cc1.[Ca+2] [calcium p-methyl benzoate] | significantly reduce the diarrhea rate | significant dose effect | significantly reduce the diarrhea rate | significant dose effect |  |  |  | 203.6 g | 12.0% | 1.54 | 1.40 | 612 | 100 | 157 |  |  | Growth promotion versus blank control group (in words) (grass carps): obvious effects on growth promotion
8 | O=C(O)CC(O)(CC(=O)O)C(=O)O [citric acid, reference compound] | no such effects | no such effects |  |  |  | 19.8 | 1.88 | 181.3 g and 180.4 g | 31.0% and 26.0% | 1.67 and 1.68 | 1.47 | 582 | 100 | 147 | no such effects | no such effects | 
9 | O=P(O)(O)O [phosphoric acid, reference compound] | no such effects | no such effects |  |  |  |  |  | 175.3 g | 27.0% | 1.66 |  |  |  |  |  |  | 
10 | Cc1ccc(C(=O)[O-])cc1.[Na+] [sodium p-methyl benzoate] |  |  | significantly reduce the diarrhea rate | significant dose effect |  | 24.3 | 1.79 | 203.7 g | 17.0% | 1.55 |  |  |  |  | significantly increase the daily gain | improve the feed conversion ratio | 
